According to PubChem BioAssay AID1918999 (Molecular Pharmacology Branch, DTP, NCI, 2023):
Values joined by “and” are separate entries in the source; they are usually repeats but may differ in a detail not shown here. Identical values can stand only once.

Tested on: 556581-035-R-J1-PDC complex spheroid growth
Test: Anticancer human tumor 556581-035-R-J1-PDC patient-derived ovarian carcinoma cell line growth inhibition [AhR]
Settings: for viability, T/C: stronger effect = lower value
Method in brief: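 Spheroids combined tumor cells with HUVEC endothelial cells and human MSCs as stroma. AhR antagonists were paired with standard or investigational drugs, each dosed in half-log steps down from near clinical Cmax, or from 10 microM where Cmax was unknown.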

[1] = curve of first compound, second compound 0.1 µM
[2] = curve of first compound, second compound 0.316 µM
[3] = curve of first compound, second compound 1 µM
[4] = curve of first compound, second compound 3.16 µM
[5] = curve of first compound, second compound 10 µM
[6] = second compound 0.1 µM, first compound 0.0316 µM
[7] = second compound 0.1 µM, first compound 0.1 µM
[8] = second compound 0.1 µM, first compound 0.316 µM
[9] = second compound 0.1 µM, first compound 1 µM
[10] = second compound 0.316 µM, first compound 0.0316 µM
[11] = second compound 0.316 µM, first compound 0.1 µM
[12] = second compound 0.316 µM, first compound 0.316 µM
[13] = second compound 0.316 µM, first compound 1 µM
[14] = second compound 1 µM, first compound 0.0316 µM
[15] = second compound 1 µM, first compound 0.1 µM
[16] = second compound 1 µM, first compound 0.316 µM
[17] = second compound 1 µM, first compound 1 µM
[18] = second compound 3.16 µM, first compound 0.0316 µM
[19] = second compound 3.16 µM, first compound 0.1 µM
[20] = second compound 3.16 µM, first compound 0.316 µM
[21] = second compound 3.16 µM, first compound 1 µM
[22] = second compound 10 µM, first compound 0.0316 µM
[23] = second compound 10 µM, first compound 0.1 µM
[24] = second compound 10 µM, first compound 0.316 µM
[25] = second compound 10 µM, first compound 1 µM
[26] = second compound 0.1 µM, first compound 3.16 µM
[27] = second compound 0.1 µM, first compound 10 µM
[28] = second compound 0.316 µM, first compound 3.16 µM
[29] = second compound 0.316 µM, first compound 10 µM
[30] = second compound 1 µM, first compound 3.16 µM
[31] = second compound 1 µM, first compound 10 µM
[32] = second compound 3.16 µM, first compound 3.16 µM
[33] = second compound 3.16 µM, first compound 10 µM
[34] = second compound 10 µM, first compound 3.16 µM
[35] = second compound 10 µM, first compound 10 µM
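For viability, T/C in this document: compound exposure lasted 7 days; 100% = DMSO vehicle control growth.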

| IC50 [1] | IC50 [2] | IC50 [3] | IC50 [4] | IC50 [5] | Compound | viability, T/C [6] | viability, T/C [7] | viability, T/C [8] | viability, T/C [9] | viability, T/C [10] | viability, T/C [11] | viability, T/C [12] | viability, T/C [13] | viability, T/C [14] | viability, T/C [15] | viability, T/C [16] | viability, T/C [17] | viability, T/C [18] | viability, T/C [19] | viability, T/C [20] | other results |
| --- | --- | --- | --- | --- | --- | --- | --- | --- | --- | --- | --- | --- | --- | --- | --- | --- | --- | --- | --- | --- | --- |
| > 1 µM | > 1 µM | > 1 µM | > 1 µM | > 1 µM | Nc1ncn(C2CC(O)C(CO)O2)c(=O)n1 (centres undefined) + CC(CO)NC(=O)c1cc(-c2ccc(Cl)cc2)nn(-c2cnn(C)c2)c1=O | 84.9% | 77.1% | 78.7% | 70.4% | 84.3% | 78.4% | 71.9% | 72.4% | 85.3% | 81.8% | 72.3% | 72.2% | 87.3% | 75.2% | 70.1% | viability, T/C (second compound 0.1 µM, first compound 0.00316 µM): 92.5%; viability, T/C (second compound 0.1 µM, first compound 0.01 µM): 89.9%; viability, T/C (second compound 0.316 µM, first compound 0.00316 µM): 88.4%; viability, T/C (second compound 0.316 µM, first compound 0.01 µM): 95%; viability, T/C (second compound 1 µM, first compound 0.00316 µM): 85%; viability, T/C (second compound 1 µM, first compound 0.01 µM): 104%; viability, T/C (second compound 3.16 µM, first compound 0.00316 µM): 95.4%; viability, T/C (second compound 3.16 µM, first compound 0.01 µM): 90.7%; viability, T/C [21]: 68.9%; viability, T/C (second compound 10 µM, first compound 0.00316 µM): 97.5%; viability, T/C (second compound 10 µM, first compound 0.01 µM): 99.6%; viability, T/C [22]: 92.3%; viability, T/C [23]: 81.8%; viability, T/C [24]: 80%; viability, T/C [25]: 77.1% |
| > 10 µM | > 10 µM | > 10 µM | > 10 µM | > 10 µM | COc1cc(Nc2ncc3c(n2)-c2ccc(Cl)cc2C(c2c(F)cccc2OC)=NC3)ccc1C(=O)O + Cc1ccccc1N=Nc1ccc(NC(=O)c2ccnn2C)c(C)c1 | 83.8% | 72.4% | 69.2% | 61.4% | 78% | 73.5% | 68.5% | 56.6% | 80.5% | 73.2% | 69% | 62.8% | 67.2% | 66.2% | 57.6% | viability, T/C [26]: 60.4%; viability, T/C [27]: 59.4%; viability, T/C [28]: 61.1%; viability, T/C [29]: 48.7%; viability, T/C [30]: 64.7%; viability, T/C [31]: 54.9%; viability, T/C [21]: 58.1%; viability, T/C [32]: 58.6%; viability, T/C [33]: 49.2%; viability, T/C [22]: 70.2%; viability, T/C [23]: 61.9%; viability, T/C [24]: 62.1%; viability, T/C [25]: 66%; viability, T/C [34]: 57.6%; viability, T/C [35]: 56.8% |
| – | – | – | – | – | CCN(c1cc(-c2ccc(CN3CCOCC3)cc2)cc(C(=O)NCc2c(C)cc(C)[nH]c2=O)c1C)C1CCOCC1 | – | – | – | – | – | – | – | – | – | – | – | – | – | – | – | viability, T/C (compound 0.00949 µM): 98.6% and 100% and 96.3%; viability, T/C (compound 0.03 µM): 110% and 102% and 118%; viability, T/C (compound 0.0949 µM): 97.2% and 104% and 89.5%; viability, T/C (compound 0.3 µM): 96.6% and 91% and 102%; viability, T/C (compound 0.949 µM): 96.9% and 87.3% and 106%; viability, T/C (compound 3 µM): 102% and 91.7% and 108%; IC50 (curve of compound): > 3 µM |
| > 10 µM | > 10 µM | > 10 µM | > 10 µM | > 10 µM | O=C(c1cc(Cc2n[nH]c(=O)c3ccccc23)ccc1F)N1CCN(C(=O)C2CC2)CC1 + CC(CO)NC(=O)c1cc(-c2ccc(Cl)cc2)nn(-c2cnn(C)c2)c1=O | 93.7% | 94.6% | 93% | 85.1% | 91.9% | 98% | 93% | 89.3% | 93.9% | 108% | 95.2% | 95% | 90.2% | 89.7% | 94.2% | viability, T/C [26]: 83.7%; viability, T/C [27]: 82.4%; viability, T/C [28]: 81.4%; viability, T/C [29]: 84.3%; viability, T/C [30]: 90.1%; viability, T/C [31]: 73.2%; viability, T/C [21]: 84%; viability, T/C [32]: 81.4%; viability, T/C [33]: 74.4%; viability, T/C [22]: 106%; viability, T/C [23]: 105%; viability, T/C [24]: 85.2%; viability, T/C [25]: 99.5%; viability, T/C [34]: 79.1%; viability, T/C [35]: 77.6% |
| 5.52 µM | 4.75 µM | > 10 µM | 5.11 µM | 4.4 µM | COc1ccc([C@@H](O)c2cc(-c3ncnc4cc(N5CCOCC5)ccc34)c(F)cc2Cl)nn1 + Cc1ccccc1N=Nc1ccc(NC(=O)c2ccnn2C)c(C)c1 | 107% | 104% | 102% | 78.2% | 104% | 97.2% | 100% | 78% | 112% | 106% | 110% | 75.5% | 89.1% | 95% | 89.1% | viability, T/C [26]: 59.4%; viability, T/C [27]: 41.3%; viability, T/C [28]: 55.8%; viability, T/C [29]: 41.2%; viability, T/C [30]: 56.4%; viability, T/C [31]: 47.1%; viability, T/C [21]: 74.6%; viability, T/C [32]: 56.8%; viability, T/C [33]: 41.5%; viability, T/C [22]: 97.8%; viability, T/C [23]: 93.4%; viability, T/C [24]: 87.3%; viability, T/C [25]: 76.9%; viability, T/C [34]: 50.4%; viability, T/C [35]: 44.8% |
| 2.12 µM | 2.31 µM | 2.79 µM | 2.64 µM | 3.11 µM | Nc1ccccc1NC(=O)c1ccc(CNC(=O)OCc2cccnc2)cc1 + Cc1ccccc1N=Nc1ccc(NC(=O)c2ccnn2C)c(C)c1 | 101% | 112% | 87.2% | 69.3% | 110% | 102% | 93.7% | 72.2% | 110% | 106% | 92.7% | 70% | 113% | 104% | 88.3% | viability, T/C [26]: 40.8%; viability, T/C [27]: 18.9%; viability, T/C [28]: 41.1%; viability, T/C [29]: 19.4%; viability, T/C [30]: 49%; viability, T/C [31]: 21.5%; viability, T/C [21]: 68.5%; viability, T/C [32]: 47.3%; viability, T/C [33]: 20.6%; viability, T/C [22]: 99.5%; viability, T/C [23]: 95.9%; viability, T/C [24]: 92.9%; viability, T/C [25]: 68.2%; viability, T/C [34]: 52.2%; viability, T/C [35]: 32.8% |
| – | – | – | – | – | Cc1ccccc1N=Nc1ccc(NC(=O)c2ccnn2C)c(C)c1 | – | – | – | – | – | – | – | – | – | – | – | – | – | – | – | viability, T/C (compound 1 µM): 99.6% [middle of 20 runs]; IC50 (compound alone, run of 06/14/2022): > 10 µM |
